The series is described as follows: Gravimetric vapour sorption (GVS). Type of series: physicochemical. The protocol: Sorption isotherms were obtained using a Hiden Isochema moisture sorption analyser (model IGAsorp), controlled by IGAsorp Systems Software V6.50.48. The sample was maintained at a constant temperature (25° C.) by the instrument controls. The humidity was controlled by mixing streams of dry and wet nitrogen, with a total flow of 250 ml·min-1. The instrument was verified for relative humidity content by measuring three calibrated Rotronic salt solutions (10-50-88%). The weight change of the sample was monitored as a function of humidity by a microbalance (accuracy +/−0.005 mg). A defined amount of sample was placed in a tared mesh stainless steel basket under ambient conditions. A full experimental cycle typically consisted of three scans (sorption, desorption and sorption) at a constant temperature (25° C.) and 10% RH intervals over a 0-90% range (60 minutes for each humidity level).

From patent publication US20220348565A1, “PHARMACEUTICAL COMPOUNDS” (SENTINEL ONCOLOGY LIMITED, priority 2019, published 2022) come the findings set out here.

Each structure is given as a SMILES string.

On to `CN(C)CCNC(=O)c1ccc(-c2ccc(-c3ccc(Cl)cc3)n2-c2ccccc2C(F)(F)F)cc1.O=C(O)C(O)C(O)C(=O)O` [Tartrate Pattern B, (R)-4-[5-(4-chlorophenyl)-1-[2-(trifluoromethyl)phenyl]pyrrol-2-yl]-N-[2 (dimethylamino)ethyl]benzamide tartrate], for which the “solid form stability under GVS” value (0-90% RH cycling, XRPD post GVS) was “stable solid, only absorbing surface moisture with no change in form”. Moreover, the “moisture content before the first desorption” value (GVS, 25° C.) is reported as “ca. 0.3%”. Besides, the “moisture taken up between 80 and 90% RH” value (GVS, 25° C., 80-90% RH) is “ca. 0.8%”.
